According to patent US10413505B1, “Pharmaceutical compositions and methods of using the same” (priority 2017, dated 2019):
Counter-ions that a name gives are not always drawn.

System: healthy adult subjects
Assay: Example 11 ECG (QT/QTc) crossover study
Protocol: This was a single-dose, partially blinded, randomized, four-period, four-treatment, crossover study in which 24 healthy adult subjects received separate single doses of cocaine topical solution (8%), cocaine topical solution (4%), placebo, and moxifloxacin HCl tablet (400 mg) in four study periods. Each subject received a different treatment in each study period. Subjects received each of the following treatments in randomized fashion during the four treatment periods: (1) Treatment A: Cocaine hydrochloride, USP, topical solution, 8%; Dose=320 mg (80 mg/mL×4 mL); (2) Treatment B: Cocaine hydrochloride, USP, topical solution, 4%; Dose=160 mg (40 mg/mL×4 mL); (3) Treatment C: Placebo; and (4) Treatment D: AVELOX® (moxifloxacin hydrochloride); Dose=400 mg (1×400 mg tablet).
Treatments A, B, and C were blinded, while Treatment D was open label. Each drug administration was separated by a washout period of at least 4 days. […] Moxifloxacin HCl was orally administered along with approximately 240 mL (8 fl oz) of room temperature water.
A 25-hour continuous 12-lead ECG recording was performed on Day 1, starting 1 hour before dosing. At the designated time points, up to 10 replicate ECGs were extracted and intervals were measured using the High Precision QT technique. […] During protocol-specified ECG extraction windows, 10-second digital 12-lead ECG tracings were extracted from continuous recordings (preceded by a 10-minute supine rest period) at the following time points: predose (3 time points) and 20 minutes (end of cocaine dose; immediately after pledget removal), 40 minutes, and at 1, 1.25, 1.5, 2, 2.5, 3, 4, 6, 8, 12, and 24 hours after pledget insertion/moxifloxacin dosing.
The primary ECG endpoint was ΔQTcF. ΔQTcF is the QTc corrected for heart rate by the Fridericia method. The term “QTc”, as used herein, refers to the duration of the QT interval adjusted for the patient's heart rate.
The secondary ECG endpoints were: change-from-baseline heart rate (“HR”), time from beginning of the P-wave to the beginning of the next QRS complex (“PR”), deflections in the tracing of the electrocardiogram comprising the Q, R, and S waves that represent depolarization of the ventricles (“QRS”), time elapsed between two consecutive R waves (“RR”), and measure of the time in the tracing of the electrocardiogram between the start of the Q-wave and the end of the T-wave (“QT”); and T-wave morphological changes.

[1] = 400 mg, 20 min post-dose, QT/QTc Population
[2] = 400 mg, 40 min post-dose, QT/QTc Population
[3] = 400 mg, 1 hour post-dose, QT/QTc Population
[4] = 400 mg, 1.25 hour post-dose, QT/QTc Population
[5] = 400 mg, 1.5 hour post-dose, QT/QTc Population
[6] = 400 mg, 2 hours post-dose, QT/QTc Population
[7] = 400 mg, 3 hours post-dose, QT/QTc Population
[8] = 400 mg, 4 hours post-dose, QT/QTc Population
[9] = 400 mg, 6 hours post-dose, QT/QTc Population
[10] = 400 mg, 8 hours post-dose, QT/QTc Population
[11] = 400 mg, 12 hours post-dose, QT/QTc Population
[12] = 400 mg, 24 hours post-dose, QT/QTc Population
[13] = 400 mg, […] post-dose, QT/QTc Population
[14] = 20 min post-dose, QT/QTc Population
[15] = 40 min post-dose, QT/QTc Population
[16] = 1 hour post-dose, QT/QTc Population
[17] = 1.25 hour post-dose, QT/QTc Population
[18] = 1.5 hour post-dose, QT/QTc Population
[19] = 2 hours post-dose, QT/QTc Population
[20] = 3 hours post-dose, QT/QTc Population
[21] = 4 hours post-dose, QT/QTc Population
[22] = 6 hours post-dose, QT/QTc Population
[23] = 8 hours post-dose, QT/QTc Population
[24] = 12 hours post-dose, QT/QTc Population
[25] = 24 hours post-dose, QT/QTc Population
[26] = […] post-dose, QT/QTc Population

COc1c(N2C[C@@H]3CCCN[C@@H]3C2)c(F)cc2c(=O)c(C(=O)O)cn(C3CC3)c12 [moxifloxacin HCl, moxifloxacin hydrochloride]
peak ΔQTcF (400 mg oral, 4 hours post-dosing): 14.4 ms
peak ΔΔQTcF (400 mg oral, 4 h post-dose): 15.2 ms
ΔPR, change-from-baseline PR, LSMean [1]: 1.1 ms
ΔQRS, change-from-baseline QRS, LSMean [1]: -0.5 ms
ΔQT, change-from-baseline QT, LSMean [1]: -5.3 ms
ΔRR, change-from-baseline RR, LSMean [1]: -18.8 ms
ΔΔPR, placebo-corrected change-from-baseline PR, LSMean [1]: 2.1 ms
ΔPR, change-from-baseline PR, LSMean [2]: 1.4 ms
ΔQRS, change-from-baseline QRS, LSMean [2]: -0.5 ms
ΔQT, change-from-baseline QT, LSMean [2]: 2.2 ms
ΔRR, change-from-baseline RR, LSMean [2]: -15.8 ms
ΔΔPR, placebo-corrected change-from-baseline PR, LSMean [2]: 0.1 ms
ΔPR, change-from-baseline PR, LSMean [3]: 0.8 ms
ΔQRS, change-from-baseline QRS, LSMean [3]: -0.4 ms
ΔQT, change-from-baseline QT, LSMean [3]: 3.9 ms
ΔRR, change-from-baseline RR, LSMean [3]: -24.5 ms
ΔΔPR, placebo-corrected change-from-baseline PR, LSMean [3]: 0.1 ms
ΔPR, change-from-baseline PR, LSMean [4]: 0.5 ms
ΔQRS, change-from-baseline QRS, LSMean [4]: 0.2 ms
ΔQT, change-from-baseline QT, LSMean [4]: 3.9 ms
ΔRR, change-from-baseline RR, LSMean [4]: -35.1 ms
ΔΔPR, placebo-corrected change-from-baseline PR, LSMean [4]: -0.2 ms
ΔPR, change-from-baseline PR, LSMean [5]: -0.7 ms
ΔQRS, change-from-baseline QRS, LSMean [5]: 0.0 ms
ΔQT, change-from-baseline QT, LSMean [5]: 0.8 ms
ΔRR, change-from-baseline RR, LSMean [5]: -58.5 ms
ΔΔPR, placebo-corrected change-from-baseline PR, LSMean [5]: -1.9 ms
ΔPR, change-from-baseline PR, LSMean [6]: 0.2 ms
ΔQRS, change-from-baseline QRS, LSMean [6]: 0.0 ms
ΔQT, change-from-baseline QT, LSMean [6]: 4.2 ms
ΔRR, change-from-baseline RR, LSMean [6]: -33.8 ms
ΔΔPR, placebo-corrected change-from-baseline PR, LSMean [6]: 0.2 ms
ΔPR, change-from-baseline PR, LSMean [7]: -2.1 ms
ΔQRS, change-from-baseline QRS, LSMean [7]: 0.0 ms
ΔQT, change-from-baseline QT, LSMean [7]: 7.5 ms
ΔRR, change-from-baseline RR, LSMean [7]: -41.1 ms
ΔΔPR, placebo-corrected change-from-baseline PR, LSMean [7]: -2.1 ms
ΔPR, change-from-baseline PR, LSMean [8]: -1.5 ms
ΔQRS, change-from-baseline QRS, LSMean [8]: -0.0 ms
ΔQT, change-from-baseline QT, LSMean [8]: 6.7 ms
ΔRR, change-from-baseline RR, LSMean [8]: -121.3 ms
ΔΔPR, placebo-corrected change-from-baseline PR, LSMean [8]: -1.4 ms
ΔPR, change-from-baseline PR, LSMean [9]: -4.2 ms
ΔQRS, change-from-baseline QRS, LSMean [9]: -0.5 ms
ΔQT, change-from-baseline QT, LSMean [9]: -9.5 ms
ΔRR, change-from-baseline RR, LSMean [9]: -121.3 ms
ΔΔPR, placebo-corrected change-from-baseline PR, LSMean [9]: -2.6 ms
ΔPR, change-from-baseline PR, LSMean [10]: -5.2 ms
ΔQRS, change-from-baseline QRS, LSMean [10]: -0.5 ms
ΔQT, change-from-baseline QT, LSMean [10]: -7.6 ms
ΔRR, change-from-baseline RR, LSMean [10]: -88.8 ms
ΔΔPR, placebo-corrected change-from-baseline PR, LSMean [10]: -1.4 ms
ΔPR, change-from-baseline PR, LSMean [11]: -4.7 ms
ΔQRS, change-from-baseline QRS, LSMean [11]: -0.0 ms
ΔQT, change-from-baseline QT, LSMean [11]: -14.0 ms
ΔRR, change-from-baseline RR, LSMean [11]: -151.8 ms
ΔΔPR, placebo-corrected change-from-baseline PR, LSMean [11]: -3.9 ms
ΔPR, change-from-baseline PR, LSMean [12]: -0.9 ms
ΔQRS, change-from-baseline QRS, LSMean [12]: 0.1 ms
ΔQT, change-from-baseline QT, LSMean [12]: -6.6 ms
ΔRR, change-from-baseline RR, LSMean [12]: -65.8 ms
ΔΔPR, placebo-corrected change-from-baseline PR, LSMean [12]: 1.7 ms
T-wave morphology treatment emergent changes: Biphasic, Subject count (400 mg, QT/QTc Population): 0
T-wave morphology treatment emergent changes: Biphasic, Timepoint count (400 mg, QT/QTc Population): 0
T-wave morphology treatment emergent changes: Flat, Subject count (400 mg, QT/QTc Population): 0
T-wave morphology treatment emergent changes: Flat, Timepoint count (400 mg, QT/QTc Population): 0
T-wave morphology treatment emergent changes: Normal (−), Subject count (400 mg, QT/QTc Population): 0
T-wave morphology treatment emergent changes: Normal (−), Timepoint count (400 mg, QT/QTc Population): 0
T-wave morphology treatment emergent changes: Notched (+), Subject count (400 mg, QT/QTc Population): 0
T-wave morphology treatment emergent changes: Notched (+), Timepoint count (400 mg, QT/QTc Population): 0
T-wave morphology treatment emergent changes: Notched (−), Subject count (400 mg, QT/QTc Population): 0
T-wave morphology treatment emergent changes: Notched (−), Timepoint count (400 mg, QT/QTc Population): 0
ΔPR, change-from-baseline PR, LSMean [13]: -0.8 ms
ΔQRS, change-from-baseline QRS, LSMean [13]: -0.3 ms
ΔQT, change-from-baseline QT, LSMean [13]: 6.1 ms
ΔRR, change-from-baseline RR, LSMean [13]: -37.0 ms
ΔΔPR, placebo-corrected change-from-baseline PR, LSMean [13]: 0.5 ms
ΔHR (change-from-baseline HR), LSMean [14]: 1.0 bpm
ΔQTcF (change-from-baseline QTcF), LSMean [14]: -3.1 ms
ΔΔHR (placebo-corrected change-from-baseline HR), LSMean [14]: −4.4 bpm
ΔΔQTcF (placebo-corrected change-from-baseline QTcF), LSMean [14]: -0.1 ms
ΔHR (change-from-baseline HR), LSMean [15]: 1.3 bpm
ΔQTcF (change-from-baseline QTcF), LSMean [15]: 4.4 ms
ΔΔHR (placebo-corrected change-from-baseline HR), LSMean [15]: 0.4 bpm
ΔΔQTcF (placebo-corrected change-from-baseline QTcF), LSMean [15]: 5.4 ms
ΔHR (change-from-baseline HR), LSMean [16]: 1.8 bpm
ΔQTcF (change-from-baseline QTcF), LSMean [16]: 7.4 ms
ΔΔHR (placebo-corrected change-from-baseline HR), LSMean [16]: 1.7 bpm
ΔΔQTcF (placebo-corrected change-from-baseline QTcF), LSMean [16]: 7.8 ms
ΔHR (change-from-baseline HR), LSMean [17]: 2.6 bpm
ΔQTcF (change-from-baseline QTcF), LSMean [17]: 9.1 ms
ΔΔHR (placebo-corrected change-from-baseline HR), LSMean [17]: 2.7 bpm
ΔΔQTcF (placebo-corrected change-from-baseline QTcF), LSMean [17]: 8.7 ms
ΔHR (change-from-baseline HR), LSMean [18]: 3.9 bpm
ΔQTcF (change-from-baseline QTcF), LSMean [18]: 8.4 ms
ΔΔHR (placebo-corrected change-from-baseline HR), LSMean [18]: 3.8 bpm
ΔΔQTcF (placebo-corrected change-from-baseline QTcF), LSMean [18]: 7.9 ms
ΔHR (change-from-baseline HR), LSMean [19]: 2.3 bpm
ΔQTcF (change-from-baseline QTcF), LSMean [19]: 9.0 ms
ΔΔHR (placebo-corrected change-from-baseline HR), LSMean [19]: 3.1 bpm
ΔΔQTcF (placebo-corrected change-from-baseline QTcF), LSMean [19]: 8.9 ms
ΔHR (change-from-baseline HR), LSMean [20]: 2.6 bpm
ΔQTcF (change-from-baseline QTcF), LSMean [20]: 13.2 ms
ΔΔHR (placebo-corrected change-from-baseline HR), LSMean [20]: 2.5 bpm
ΔΔQTcF (placebo-corrected change-from-baseline QTcF), LSMean [20]: 13.0 ms
ΔHR (change-from-baseline HR), LSMean [21]: 3.4 bpm
ΔQTcF (change-from-baseline QTcF), LSMean [21]: 14.4 ms
ΔΔHR (placebo-corrected change-from-baseline HR), LSMean [21]: 1.6 bpm
ΔΔQTcF (placebo-corrected change-from-baseline QTcF), LSMean [21]: 15.2 ms
ΔHR (change-from-baseline HR), LSMean [22]: 8.2 bpm
ΔQTcF (change-from-baseline QTcF), LSMean [22]: 7.2 ms
ΔΔHR (placebo-corrected change-from-baseline HR), LSMean [22]: 2.5 bpm
ΔΔQTcF (placebo-corrected change-from-baseline QTcF), LSMean [22]: 10.9 ms
ΔHR (change-from-baseline HR), LSMean [23]: 5.7 bpm
ΔQTcF (change-from-baseline QTcF), LSMean [23]: 4.4 ms
ΔΔHR (placebo-corrected change-from-baseline HR), LSMean [23]: 1.6 bpm
ΔΔQTcF (placebo-corrected change-from-baseline QTcF), LSMean [23]: 11.5 ms
ΔHR (change-from-baseline HR), LSMean [24]: 10.7 bpm
ΔQTcF (change-from-baseline QTcF), LSMean [24]: 7.3 ms
ΔΔHR (placebo-corrected change-from-baseline HR), LSMean [24]: 1.5 bpm
ΔΔQTcF (placebo-corrected change-from-baseline QTcF), LSMean [24]: 9.6 ms
ΔHR (change-from-baseline HR), LSMean [25]: 4.2 bpm
ΔQTcF (change-from-baseline QTcF), LSMean [25]: 2.4 ms
ΔΔHR (placebo-corrected change-from-baseline HR), LSMean [25]: −0.0 bpm
ΔΔQTcF (placebo-corrected change-from-baseline QTcF), LSMean [25]: 7.5 ms
ΔHR (change-from-baseline HR), LSMean [26]: 2.6 bpm
ΔQTcF (change-from-baseline QTcF), LSMean [26]: 11.5 ms
ΔΔHR (placebo-corrected change-from-baseline HR), LSMean [26]: 0.9 bpm
ΔΔQTcF (placebo-corrected change-from-baseline QTcF), LSMean [26]: 9.8 ms
